Results as given in patent US11951105B2 (Lake O'Hara LLC, priority 2020, dated 2024).

Tests used:
CYP3A4 = CYP3A4 (Homo sapiens, UniProt P08684); settings: based on the literature; cited from earlier work
[1] = PBPK modeling of schizophrenia patients treated according to modified dosing regimens; design: species or system human; settings: for Days Reduced to Reach Pharmacokinetic Endpoints: EC80 / Days Reduced to Reach Pharmacokinetic Endpoints: Steady State: modified regimen of Table F vs FDA label, Obese
Text: In order to simulate brexpiprazole under various conditions, a whole-body PBPK model was constructed to capture the drug's kinetics in major tissues. Model tissue compartments included adipose, bone, brain, large intestine, small intestine, heart, kidney, liver, lung, muscle, spleen, stomach, and skin tissues, as well as venous and arterial blood compartments. In order to accurately capture first-pass clearance effects on the drug, the model also included correct representation of the gastrointestinal tract organs and the liver. […] Drug distribution into each tissue compartment was modeled assuming perfusion-limited kinetics, with partitioning into tissue described by a partition coefficient (Kp) estimated using methods described by Poulin and Theil (2002). Brexpiprazole-specific biochemical parameters such as the log of octanol:water partition coefficient (log P), negative log acid dissociation constant (pKa), fraction unbound in the plasma (fup), blood:plasma concentration ratio (BP), and clearance were obtained from literature; additional physiochemical properties used to calculate Kps were obtained via DrugBank. […] Simulations were carried out in a virtual population of 500 normal-weight and 500 obese individuals with age- and sex-specific physiological parameters (i.e. tissue flows and volumes) sampled from the National Health and Nutrition Examination Survey (NHANES) dataset.
PBPK Modeling of Schizophrenia Patients Treated with Higher Doses According to Modified Methods
A modified dosing regimen was developed so that obese and CYP2D6 PM patients reach therapeutic levels earlier (Table F). […] On day 8, patients returned to administering the recommended dose once daily. […] On day 15, patients returned to administering the recommended dose once daily.

CYP2D6 = settings: cited from earlier work
[2] = brexpiprazole patients; cited from earlier work
[3] = cited from earlier work

CYP3A4, sequence (P08684 whole entry): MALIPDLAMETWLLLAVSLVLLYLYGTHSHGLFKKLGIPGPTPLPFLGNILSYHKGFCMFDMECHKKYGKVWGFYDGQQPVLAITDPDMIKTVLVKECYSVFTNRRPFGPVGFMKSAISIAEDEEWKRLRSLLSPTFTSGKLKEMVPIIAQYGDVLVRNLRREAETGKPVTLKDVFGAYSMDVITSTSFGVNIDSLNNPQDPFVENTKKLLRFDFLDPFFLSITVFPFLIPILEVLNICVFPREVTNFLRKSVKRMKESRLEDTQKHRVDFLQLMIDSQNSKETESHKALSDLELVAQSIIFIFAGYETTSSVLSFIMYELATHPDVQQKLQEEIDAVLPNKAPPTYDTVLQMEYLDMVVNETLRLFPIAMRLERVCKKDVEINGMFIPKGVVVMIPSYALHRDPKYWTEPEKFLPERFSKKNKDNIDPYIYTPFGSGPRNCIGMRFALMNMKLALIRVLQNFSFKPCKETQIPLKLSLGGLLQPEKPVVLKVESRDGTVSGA

O=c1ccc2ccc(OCCCCN3CCN(c4cccc5sccc45)CC3)cc2[nH]1 [brexpiprazole, 7-{4-[4-(1-Benzothiophen-4-yl)piperazin-1-yl]butoxy}quinolin-2(1H)-one]
share of brexpiprazole clearance due to CYP3A4 (CYP3A4): 46.7% | Days Reduced to Reach Pharmacokinetic Endpoints: EC80 ([1]; CYP2D6 EM): 3 days | Days Reduced to Reach Pharmacokinetic Endpoints: Steady State ([1]; CYP2D6 EM): -4 days | Days Reduced to Reach Pharmacokinetic Endpoints: EC80 ([1]; CYP2D6 PM): 5 days | Days Reduced to Reach Pharmacokinetic Endpoints: Steady State ([1]; CYP2D6 PM): -29 days | days faster to reach therapeutic concentrations than once daily dosing ([1]; schizophrenia, normal-weight CYP2D6 PM, Modified Dosing Regimen 3): three | days faster to reach therapeutic concentrations than with FDA label dosing ([1]; schizophrenia, obese CYP2D6 EM, twice the daily doses for the first 7 days (Regimen 1)): three | days faster to reach therapeutic concentrations than once daily dosing ([1]; schizophrenia, obese CYP2D6 PM, twice the daily doses for the first 14 days (Regimen 2)): five | decrease of baseline clearance by CYP2D6 PM status (CYP2D6; CYP2D6 poor metabolizers): ~30% | share of brexpiprazole clearance due to CYP2D6 (CYP2D6; based on the literature): 43.3% | akathisia rates [2]: dose-dependent | share of brexpiprazole clearance due to other routes ([3]; based on the literature): 10% | effect of weight on the pharmacokinetics of brexpiprazole ([3]; previous studies): less than 20% | renal clearance ([3]; share of clearance, model assumption): ~1%
